This is an account of results in US20260144880A1 (priority 2018, published 2026).

Data set [1] relates to Neuraminidase transfected HEK 293 cells. The format is binding.
Data set [2] deals with A/Aichi/2/1968 (HA, NA), x-31b (H3N2) virus. Details: species or system mice. Conditions: mouse, in vivo, ip.
Data set [3] relates to 293NA cells (HEK 293 cells that express NA). The format is cell-based.
For data set [4], the system named is influenza virus A/Puerto Rico/8/1934 (H1N1). The data set is classed as in vivo, BALB/c mice. Conditions: DNP-KLH immunized mice, 1.5 μmol/kg intranasally one time a day for five days, 100 LD50.
For data set [5], the system named is A/Aichi/2/1968 (HA, NA), x-31b (H3N2) virus. Details: species or system mice. Conditions: mouse, in vivo.
The subject of a further data set is A/Puerto Rico/8/34. Details: species or system mice. Conditions: mouse, in vivo, ip.
Data set [6] has as its system Neuraminidase transfected HEK 293 cells.
A further data set in a line: in vitro. Conditions: human.

Where two headings read alike, the source gives them in different places.

As for `CC(=O)N[C@H]1[C@H]([C@H](O)[C@H](O)CO)OC(C(=O)O)=C[C@@H]1N=C(N)N` [zanamivir], in data set [1], the Kd (commonly the concentration at which binding is half-saturated) is ~0.77 nM. For the same compound, the “protection 14 days post infection” value (in data set [2]; in data set [5]; in the data set on A/Puerto Rico/8/34) was “does not provide the same protection” each time. For the same compound, the “% of killing (LDH)” value in data set [3] is listed as “no killing”. In addition, in data set [4], the “survival (protection from lethal virus challenge)” value is 60%.
As to Tubulysin B hydrazide, it took 9.9 nM to reach a half-maximal effect in data set [6] (EC50). This counts as single-digit nanomolar.
For the compound `CCCC(=O)OCN(C(=O)[C@@H](NC(=O)[C@H]1CCCCN1C)C(C)CC)[C@H](C[C@@H](OC(C)=O)c1nc(C(=O)N[C@@H](Cc2ccc(O)cc2)C[C@H](C)C(=O)NNC(=O)OCCSSC[C@H](NC(=O)[C@H](CC(=O)O)NC(=O)[C@@H](N)CNC(=O)CCC(=O)N2Cc3ccccc3-c3c(nnn3CCOCCOCCOCCNC(=O)O[C@@H]([C@@H]3OC(C(=O)O)=C[C@H](NC(=N)N)[C@H]3NC(C)=O)[C@H](O)CO)-c3ccccc32)C(=O)O)cs1)C(C)C` (stereo partly drawn), the EC50 – broadly, the midpoint of the concentration-response curve – in the data set “in vitro” came to 5.2 nM. Further, in data set [6], the “reduction of cytotoxicity by blocking neuraminidase binding sites” value was > 30 fold.
